From US20120270237A9, “METHODS FOR THE IDENTIFICATION OF KINASE INTERACTING MOLECULES AND FOR THE PURIFICATION OF KINASE PROTEINS” (Cellzone AG, priority 2009, published 2012) come the findings set out here.

One test addresses T1, TEC (Homo sapiens, UniProt P42680).
T1 sequence (P42680 1-631): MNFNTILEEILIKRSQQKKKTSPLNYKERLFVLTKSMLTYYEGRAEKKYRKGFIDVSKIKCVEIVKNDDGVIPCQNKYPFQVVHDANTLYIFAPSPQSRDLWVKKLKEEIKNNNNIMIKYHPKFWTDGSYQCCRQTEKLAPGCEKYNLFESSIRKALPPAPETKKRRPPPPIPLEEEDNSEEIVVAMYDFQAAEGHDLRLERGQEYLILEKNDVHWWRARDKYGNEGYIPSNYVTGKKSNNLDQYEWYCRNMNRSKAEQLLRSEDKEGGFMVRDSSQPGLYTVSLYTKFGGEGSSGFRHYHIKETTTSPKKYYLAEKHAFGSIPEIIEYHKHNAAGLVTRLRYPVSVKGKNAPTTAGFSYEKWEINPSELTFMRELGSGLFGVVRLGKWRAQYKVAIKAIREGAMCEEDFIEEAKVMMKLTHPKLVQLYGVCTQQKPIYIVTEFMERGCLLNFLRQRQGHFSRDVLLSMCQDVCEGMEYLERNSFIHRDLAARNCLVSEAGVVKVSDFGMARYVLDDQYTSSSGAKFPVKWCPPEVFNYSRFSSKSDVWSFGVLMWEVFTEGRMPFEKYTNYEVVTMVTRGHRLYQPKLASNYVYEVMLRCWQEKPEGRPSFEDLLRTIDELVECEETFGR
Nature of the test: Kinobeads competition binding, HL60 cell lysate. The conditions noted are these: 10 μM free compound. In a few lines: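 HL60 lysate (50 mg protein) pre-incubated with 10 μM free compound or 0.5% DMSO, then captured on beads bearing the immobilized compound for 2 h at 4 °C. Eluted proteins were trypsin-digested in-gel, iTRAQ-labeled and quantified by LC-MS/MS from reporter-ion peak areas relative to the DMSO control.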

In a further test the target is MAP3K1 (Homo sapiens, UniProt Q13233). Nature of the test: Kinobeads competition binding, L-363 cell lysate. The arrangement: endogenous in cells; host or cells: L-363 cells (DSMZ ACC49), treated with MG132 before harvest. The conditions noted are these: 10 μM free compound, L-363 lysate. The procedure:
(§1) To one aliquot of cell lysate 10 μM of the free compound (FIG. 3, CZC31326) was added and allowed to bind to proteins in the lysate. Then the affinity matrix with the immobilized compound was added to capture proteins that were not interacting with the previously added free compound. Beads were separated from the lysate and bead bound proteins were eluted in SDS sample buffer and subsequently separated by SDS-Polyacrylamide gel electrophoresis (FIG. 8). Suitable gel bands were cut out and subjected to in-gel proteolytic digestion with trypsin. The second lysate aliquot was processed identically, however no free compound was added (DMSO solvent control). Peptides originating from samples 1 and 2 were labeled with iTRAQ reagents (iTRAQ 114 and iTRAQ 117) and the combined samples were analyzed with a nano-flow liquid chromatography system coupled online to a tandem mass spectrometer (LC-MS/MS) experiment followed by iTRAQ reporter ion quantification in the MS/MS spectra as described in Example 2.
(§2) For this experiment the human plasma cell leukaemia line L-363 was used (German Collection of Microorganisms and Cell Cultures, DSMZ number ACC49, Braunschweig, Germany). Cells were treated for three hours with 20 μM of the proteasome inhibitor MG132 (Z-Leu-Leu-Leu-al, Sigma C2211) prior to cell harvesting.

The next test has as its target MAP3K3 (Homo sapiens, UniProt Q99759). Nature of the test: Kinobeads competition binding, L-363 cell lysate. The conditions noted are these: 10 μM free compound, L-363 lysate. On the set-up: endogenous in cells; host or cells: L-363 cells (DSMZ ACC49), treated with MG132 before harvest. The procedure:
as §1, §2

The next test concerns the target MAP3K4 (Homo sapiens, UniProt Q9Y6R4). Nature of the test: Kinobeads competition binding, L-363 cell lysate. On the set-up: endogenous in cells; host or cells: L-363 cells (DSMZ ACC49), treated with MG132 before harvest. Conditions: 10 μM free compound, L-363 lysate. The procedure:
as §1, §2

MAP3K1, sequence (Q13233 whole entry): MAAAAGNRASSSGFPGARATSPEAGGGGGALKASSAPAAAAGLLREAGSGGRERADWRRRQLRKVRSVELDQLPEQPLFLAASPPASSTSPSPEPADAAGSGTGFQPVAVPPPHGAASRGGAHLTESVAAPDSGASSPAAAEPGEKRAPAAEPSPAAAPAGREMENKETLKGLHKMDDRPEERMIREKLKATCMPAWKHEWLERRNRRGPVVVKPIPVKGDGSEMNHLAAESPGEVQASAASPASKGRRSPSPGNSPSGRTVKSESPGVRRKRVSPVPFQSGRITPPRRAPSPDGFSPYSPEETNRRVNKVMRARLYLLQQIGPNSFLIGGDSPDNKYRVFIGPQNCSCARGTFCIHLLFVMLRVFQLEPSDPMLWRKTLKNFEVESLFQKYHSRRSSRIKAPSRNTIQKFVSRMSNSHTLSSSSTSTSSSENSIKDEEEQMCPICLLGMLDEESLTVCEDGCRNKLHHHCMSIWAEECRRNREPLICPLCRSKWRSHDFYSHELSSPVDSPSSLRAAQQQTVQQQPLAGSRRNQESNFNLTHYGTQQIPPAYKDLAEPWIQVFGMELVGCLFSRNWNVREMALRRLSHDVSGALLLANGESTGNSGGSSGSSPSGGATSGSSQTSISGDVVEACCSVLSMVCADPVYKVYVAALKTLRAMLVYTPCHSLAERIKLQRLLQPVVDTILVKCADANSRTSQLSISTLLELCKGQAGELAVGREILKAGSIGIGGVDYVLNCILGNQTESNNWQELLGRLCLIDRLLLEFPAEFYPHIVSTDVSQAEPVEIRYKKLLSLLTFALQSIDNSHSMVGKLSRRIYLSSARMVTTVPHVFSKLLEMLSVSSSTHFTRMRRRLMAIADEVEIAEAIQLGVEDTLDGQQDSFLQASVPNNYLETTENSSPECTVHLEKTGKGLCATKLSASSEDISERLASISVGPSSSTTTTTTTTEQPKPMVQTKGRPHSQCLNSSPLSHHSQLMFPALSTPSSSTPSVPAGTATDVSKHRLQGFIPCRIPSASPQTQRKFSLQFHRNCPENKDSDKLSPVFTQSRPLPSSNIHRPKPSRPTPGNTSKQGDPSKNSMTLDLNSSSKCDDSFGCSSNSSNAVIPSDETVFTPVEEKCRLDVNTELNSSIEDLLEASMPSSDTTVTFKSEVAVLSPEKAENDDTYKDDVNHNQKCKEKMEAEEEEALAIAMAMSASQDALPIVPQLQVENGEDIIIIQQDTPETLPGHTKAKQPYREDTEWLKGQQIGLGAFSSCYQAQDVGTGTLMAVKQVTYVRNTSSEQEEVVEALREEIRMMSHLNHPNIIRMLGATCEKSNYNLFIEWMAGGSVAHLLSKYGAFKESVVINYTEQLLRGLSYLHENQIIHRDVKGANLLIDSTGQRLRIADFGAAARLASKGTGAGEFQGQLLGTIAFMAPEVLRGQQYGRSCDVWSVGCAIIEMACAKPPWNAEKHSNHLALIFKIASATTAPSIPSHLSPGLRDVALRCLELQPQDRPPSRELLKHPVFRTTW
MAP3K4, sequence (Q9Y6R4 whole entry): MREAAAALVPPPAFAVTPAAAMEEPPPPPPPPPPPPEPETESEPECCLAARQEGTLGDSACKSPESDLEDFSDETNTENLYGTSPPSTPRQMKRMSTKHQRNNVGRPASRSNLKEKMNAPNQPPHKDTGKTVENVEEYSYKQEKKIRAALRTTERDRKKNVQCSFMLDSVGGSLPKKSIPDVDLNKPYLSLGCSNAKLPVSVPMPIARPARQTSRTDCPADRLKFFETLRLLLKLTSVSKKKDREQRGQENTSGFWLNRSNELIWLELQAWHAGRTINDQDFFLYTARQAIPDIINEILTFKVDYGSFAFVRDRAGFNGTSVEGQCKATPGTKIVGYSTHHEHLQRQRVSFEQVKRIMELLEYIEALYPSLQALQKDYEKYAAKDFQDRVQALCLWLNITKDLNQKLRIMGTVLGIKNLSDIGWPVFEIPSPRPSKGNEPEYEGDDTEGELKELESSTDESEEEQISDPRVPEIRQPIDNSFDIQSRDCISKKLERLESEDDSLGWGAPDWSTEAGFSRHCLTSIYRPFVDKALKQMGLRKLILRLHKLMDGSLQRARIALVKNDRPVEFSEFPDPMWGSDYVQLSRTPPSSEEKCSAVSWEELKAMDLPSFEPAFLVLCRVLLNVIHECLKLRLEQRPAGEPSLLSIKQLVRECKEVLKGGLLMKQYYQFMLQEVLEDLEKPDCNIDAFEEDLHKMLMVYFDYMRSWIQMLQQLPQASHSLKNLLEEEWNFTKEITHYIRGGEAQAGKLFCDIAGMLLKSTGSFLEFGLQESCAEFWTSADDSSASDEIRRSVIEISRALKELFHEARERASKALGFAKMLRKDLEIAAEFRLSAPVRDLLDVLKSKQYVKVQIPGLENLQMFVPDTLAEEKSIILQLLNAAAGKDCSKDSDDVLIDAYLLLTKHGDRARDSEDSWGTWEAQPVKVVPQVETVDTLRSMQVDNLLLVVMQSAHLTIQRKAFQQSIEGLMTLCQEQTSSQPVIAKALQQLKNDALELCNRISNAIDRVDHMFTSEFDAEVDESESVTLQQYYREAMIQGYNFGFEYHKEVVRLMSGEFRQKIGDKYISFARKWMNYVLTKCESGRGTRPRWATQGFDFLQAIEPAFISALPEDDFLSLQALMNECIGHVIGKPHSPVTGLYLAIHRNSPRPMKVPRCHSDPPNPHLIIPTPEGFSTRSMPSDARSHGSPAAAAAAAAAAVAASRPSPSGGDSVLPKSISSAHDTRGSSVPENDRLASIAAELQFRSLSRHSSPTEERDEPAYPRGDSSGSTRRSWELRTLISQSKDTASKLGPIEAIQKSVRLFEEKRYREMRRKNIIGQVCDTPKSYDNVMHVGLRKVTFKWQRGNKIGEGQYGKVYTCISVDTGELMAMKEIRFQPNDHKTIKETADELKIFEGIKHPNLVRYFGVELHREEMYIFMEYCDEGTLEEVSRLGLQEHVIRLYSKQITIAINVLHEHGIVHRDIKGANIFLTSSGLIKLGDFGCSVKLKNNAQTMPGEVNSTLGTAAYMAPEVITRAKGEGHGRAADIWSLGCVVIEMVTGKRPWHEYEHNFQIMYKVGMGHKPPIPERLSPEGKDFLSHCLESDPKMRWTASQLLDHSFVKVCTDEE
MAP3K3, sequence (Q99759 whole entry): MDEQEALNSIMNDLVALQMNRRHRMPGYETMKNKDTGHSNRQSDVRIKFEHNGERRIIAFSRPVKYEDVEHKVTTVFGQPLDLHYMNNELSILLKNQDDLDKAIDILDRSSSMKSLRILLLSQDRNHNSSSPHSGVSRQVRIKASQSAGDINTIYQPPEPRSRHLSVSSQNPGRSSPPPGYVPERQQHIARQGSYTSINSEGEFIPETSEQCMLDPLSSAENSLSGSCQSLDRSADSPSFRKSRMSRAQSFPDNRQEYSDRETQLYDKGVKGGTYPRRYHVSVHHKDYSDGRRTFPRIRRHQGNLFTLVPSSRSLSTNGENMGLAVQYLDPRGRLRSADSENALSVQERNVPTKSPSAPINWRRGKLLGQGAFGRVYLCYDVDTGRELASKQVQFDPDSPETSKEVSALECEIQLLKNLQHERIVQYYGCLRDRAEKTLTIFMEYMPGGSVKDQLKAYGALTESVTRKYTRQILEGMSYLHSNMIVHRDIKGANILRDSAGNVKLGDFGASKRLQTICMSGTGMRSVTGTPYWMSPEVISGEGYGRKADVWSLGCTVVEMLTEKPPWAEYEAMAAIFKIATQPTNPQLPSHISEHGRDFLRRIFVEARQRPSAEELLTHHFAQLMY

Regarding `CS(=O)(=O)Nc1ccccc1Nc1nc(Nc2cccc(OCCN)c2)ncc1Cl` [CZC31326, N-(2-(2-(3-(2-aminoethoxy)phenylamino)-5-chloropyrimidin-4-ylamino)phenyl)methanesulfonamide], the inhibition (as a rule, the percentage by which the read-out fell short of the control) at 10 µM came out at 97% at TEC, 96.2% at MAP3K1, 97.4% on MAP3K3 and 95.8% at MAP3K4.
